ChEMBL document CHEMBL4627399, “Synthesis and Structure-Activity Relationships of 5'-Aryl-14-alkoxypyridomorphinans: Identification of a μ Opioid Receptor Agonist/δ Opioid Receptor Antagonist Ligand with Systemic Antinociceptive Activity and Diminished Opioid Side Effects” (J Med Chem, 2020)
The source made the active and inactive calls. The rule behind the calls is not given here.

Assays:
[1] = Induction of tidal volume in CD-1 mouse up to 32 mg/kg, ip administered via bolus under 5% CO2 exposure for 7 mins and measured over 45 mins by whole body plethysmography; format: organism-based; details: in vivo
[2] = target: T1, Kappa-type opioid receptor (Homo sapiens, UniProt P41145); test: Displacement of [3H]-diprenorphine from human kappa opioid receptor expressed in CHO cell membranes incubated for 1 hr by competition radioligand binding assay
[3] = Induction of spontaneous withdrawal in CD-1 mouse assessed as wet dog shakes at 32 mg/kg, sc and administered twice daily at 9 am and 5 pm for 3 days and measured on day 4 for 30 mins; format: organism-based; details: in vivo, 0.5 h
[4] = Induction of respiratory depression in CD-1 mouse assessed as reduction in tidal volume at 32 mg/kg, ip measured over 45 mins by plethysmography; format: organism-based; details: in vivo
[5] = test system: Mus musculus; test: Antinociceptive activity in iv dosed CD-1 mouse measured after 10 to 180 mins by warm water tail-flick assay; format: functional, organism-based
[6] = target: T2, Delta-type opioid receptor (Homo sapiens, UniProt P41143); test: Displacement of [3H]-diprenorphine from human delta opioid receptor expressed in CHO cell membranes incubated for 1 hr by competition radioligand binding assay
[7] = test system: Mus musculus; test: Antinociceptive activity in naloxone induced CD-1 mouse at 32 mg/kg, sc measured over 4 hrs by warm water tail-flick assay; format: functional, organism-based
[8] = Induction of spontaneous withdrawal in CD-1 mouse assessed as effect on urine output at 32 mg/kg, sc administered twice daily at 9 am and 5 pm for 3 days and measured on day 4 for 30 mins; format: organism-based; details: in vivo
[9] = Induction of spontaneous withdrawal in CD-1 mouse assessed as paw tremors at 32 mg/kg, sc and administered twice daily at 9 am and 5 pm for 3 days and measured on day 4 for 30 mins; format: organism-based; details: in vivo, 0.5 h
[10] = Reward liability in CD-1 mouse assessed as increase in conditioned place preference at 20 mg/kg, sc administered for 5 days and measured on day 5 for 15 mins; format: ADME, organism-based; details: in vivo
[11] = Induction of respiratory depression in CD-1 mouse assessed as reduction in minute ventilation at 32 mg/kg, ip measured over 45 mins by plethysmography; format: organism-based; details: in vivo
[12] = Induction of spontaneous withdrawal in CD-1 mouse assessed as ptosis at 32 mg/kg, sc and administered twice daily at 9 am and 5 pm for 3 days and measured on day 4 for 30 mins; format: organism-based; details: in vivo, 0.5 h
[13] = Induction of spontaneous withdrawal in CD-1 mouse assessed as effect on number of droppings at 32 mg/kg, sc and administered twice daily at 9 am and 5 pm for 3 days and measured on day 4 for 30 mins; format: organism-based; details: in vivo, 0.5 h
[14] = Reward liability in CD-1 mouse assessed as increase in conditioned place aversion at 20 mg/kg, sc administered for 5 days and measured on day 5 for 15 mins; format: ADME, organism-based; details: in vivo, 0.25 h
[15] = Induction of spontaneous withdrawal in CD-1 mouse assessed as effect on fecal output at 32 mg/kg, sc and administered twice daily at 9 am and 5 pm for 3 days and measured on day 4 for 30 mins; format: organism-based; details: in vivo
[16] = Stability in human liver microsomes at 1 uM measured up to 60 mins by LC-MS/MS analysis; format: ADME, Microsome; details: 1 h
[17] = Induction of physical dependence/precipitated withdrawal in naloxone-induced CD-1 mouse assessed as overall withdrawal score at 32 mg/kg, sc administered twice daily at 9 am and 5 pm for 3 days pretreated followed by naloxone challenge on day 4 at 4 hrs post compound dose and measured for 40 mins; format: organism-based; details: in vivo
[18] = target: T1, Kappa-type opioid receptor; test: Agonist activity at human kappa opioid receptor expressed in CHO cell membranes assessed as stimulation of [35S]GTPgammaS binding incubated for 1 hr relative to […]; format: functional
[19] = Induction of physical dependence in naloxone-induced CD-1 mouse assessed as increase in jumping behavior at 32 mg/kg, sc administered twice daily at 9 am and 5 pm for 3 days pretreated followed by naloxone challenge on day 4 at 4 hrs post compound dose and measured for 40 mins; format: organism-based; details: in vivo
[20] = Induction of spontaneous withdrawal in CD-1 mouse assessed as effect on jumping behavior at 32 mg/kg, sc and administered twice daily at 9 am and 5 pm for 3 days and measured on day 4 for 30 mins; format: organism-based; details: in vivo, 0.5 h
[21] = Induction of spontaneous withdrawal in CD-1 mouse assessed as effect on backward walking steps at 32 mg/kg, sc and administered twice daily at 9 am and 5 pm for 3 days and measured on day 4 for 30 mins; format: organism-based; details: in vivo, 0.5 h
[22] = Induction of spontaneous withdrawal in naloxone-induced CD-1 mouse assessed as increase in fecal pellets at 32 mg/kg, sc administered twice daily at 9 am and 5 pm for 3 days pretreated followed by naloxone challenge on day 4 at 4 hrs post compound dose and measured for 40 mins; format: organism-based; details: in vivo
[23] = test system: Mus musculus; test: Antinociceptive activity in CD-1 mouse at 1 to 10 mg/kg, iv measured after 15 to 90 mins by warm water tail-flick assay; format: functional, organism-based
[24] = Induction of spontaneous withdrawal in naloxone-induced CD-1 mouse assessed as increase in urine output at 32 mg/kg, sc administered twice daily at 9 am and 5 pm for 3 days pretreated followed by naloxone challenge on day 4 at 4 hrs post compound dose and measured for 40 mins; format: organism-based; details: in vivo
[25] = target: T2, Delta-type opioid receptor; test: Antagonist activity at human delta opioid receptor expressed in CHO cell membranes assessed as reduction in SNC80-induced [35S]GTPgammaS binding preincubated for 5 mins followed by SNC80 addition and measured after 1 hr; format: functional
[26] = target: T1, Kappa-type opioid receptor; test: Agonist activity at human kappa opioid receptor expressed in CHO cell membranes incubated for 1 hr by [35S]GTPgammaS binding assay; format: functional; details: cho
[27] = test system: Mus musculus; test: Antinociceptive activity in CD-1 mouse administered twice daily at 9 am and 5 pm for 3 days measured on day 4 by warm water tail-flick assay; format: functional
[28] = Induction of respiratory depression in CD-1 mouse assessed as reduction in respiratory rate at 32 mg/kg, ip measured over 45 mins by plethysmography; format: organism-based; details: in vivo

COc1cccc(-c2cnc3c(c2)C[C@@]2(OCCCc4ccccc4)[C@H]4Cc5ccc(O)c6c5[C@@]2(CCN4CC2CC2)[C@H]3O6)c1
Activity [1]: Toxic
Ki [2]: 0.103 µM
Activity [3]: Non-Toxic
Activity [4]: Non-Toxic
Activity [5]: Dose-dependent effect
Ki [6]: 0.048 µM
Activity [7]: inactive
Activity [8]: Non-Toxic
Activity [9]: Non-Toxic
Activity [10]: Non-Toxic
Activity [11]: Non-Toxic
Activity [12]: Non-Toxic
Activity [13]: Non-Toxic
Activity [14]: Non-Toxic
Activity [15]: Non-Toxic
Stability [16]: Stable
Activity [17]: Toxic
Emax [18]: inactive
Activity [19]: Non-Toxic
Activity [20]: Non-Toxic
Activity [21]: Non-Toxic
Activity [22]: Toxic
Activity [23]: Active
Activity [24]: Toxic
IC50 [25]: 0.0024 µM
EC50 [26]: Not Active
ED50 [27]: 25.4 mg/kg
Activity [28]: Non-Toxic
